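Exposure lasted 48 hours, with cells grown in 96-well plates and compounds tested at five concentrations. GI50 marks 50% less growth. TGI is the concentration that stops growth completely.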
Columns and labels:
Assay in all cases: NCI anticancer screen, dose series, 48 h
NCI/ADR-RES ovarian = test system: NCI/ADR-RES ovarian
HT29 colon = test system: HT29 colon
NCI-H226 lung = test system: NCI-H226 lung
PC-3 prostate = test system: PC-3 prostate
UACC-62 melanoma = test system: UACC-62 melanoma
UACC-257 melanoma = test system: UACC-257 melanoma
OVCAR-5 ovarian = test system: OVCAR-5 ovarian
RXF 393 renal = test system: RXF 393 renal

| Compound | GI50 (NCI/ADR-RES ovarian) [µM] | TGI (NCI/ADR-RES ovarian) [µM] | GI50 (HT29 colon) [µM] | TGI (HT29 colon) [µM] | GI50 (NCI-H226 lung) [µM] | TGI (NCI-H226 lung) [µM] | GI50 (PC-3 prostate) [µM] | TGI (PC-3 prostate) [µM] | GI50 (UACC-62 melanoma) [µM] | TGI (UACC-62 melanoma) [µM] | GI50 (UACC-257 melanoma) [µM] | TGI (UACC-257 melanoma) [µM] | GI50 (OVCAR-5 ovarian) [µM] | TGI (OVCAR-5 ovarian) [µM] | GI50 (RXF 393 renal) [µM] | TGI (RXF 393 renal) [µM] |
| --- | --- | --- | --- | --- | --- | --- | --- | --- | --- | --- | --- | --- | --- | --- | --- | --- |
| COc1ccc(-c2nn(-c3cccc(Cl)c3)cc2-c2cc(-c3ccccc3)nc(N)n2)cc1 | 8.72 | 31 | 2.07 | 4.32 | 4.99 | 22 | 1.6 | 6.56 | 8.06 | 26 | 2.58 | 8.51 | 2.94 | 11 | 2.64 | 8.47 |
| CCCCNC(=O)NS(=O)(=O)c1ccc(N2N=C(c3cc(C)ccc3C)CC2c2cc(OC)c(OC)c(OC)c2)cc1 (stereo not given) | 2.95 | 11.4 | 2.42 | 5.04 | 3.29 | 13 | 1.94 | 10.4 | 1.83 | 4.27 | 3.39 | 12.9 | 3.39 | 11.9 | 2.61 | 6.97 |
| CC(C)c1ccc(Nc2nccc(-c3cnn4ncccc34)n2)cc1 | 0.584 | 5.27 | 0.6 | 3.24 | 0.227 | 2.45 | 0.615 | > 12.3 | 0.326 | 1.13 | 0.563 | 1.6 | 0.44 | > 12.3 | 0.28 | 0.827 |
| Nc1ccc(-c2ccc(N)cc2I)c(I)c1 | 19 | 70 | 20 | 42.8 | 17.2 | 45.4 | 16.3 | 47.6 | 12.1 | 33.2 | 21.5 | 53.8 | 17.5 | 54.8 | 10.9 | 28 |
| CCCCCCCOc1c(OC)cc(C2CC(=O)Nc3c2c(C)nn3-c2nc3ccccc3[nH]2)cc1OC (stereo not given) | 3.83 | > 100 | 4.06 | > 100 | 2.1 | 4.56 | 3.67 | > 100 | 2.54 | 7.3 | 4.03 | > 100 | 4.39 | > 100 | 1.96 | 5.02 |
| N=C(N)c1ccc(COc2ccccc2OCc2ccc(C(=N)N)cc2)cc1 | > 100 | > 100 | 47 | > 100 | 28.6 | 81 | 36.3 | > 100 | 34.2 | > 100 | > 100 | > 100 | > 100 | > 100 |  |  |
| CSc1ccccc1C#Cc1ccccc1C#CCCCCO | 11.5 | 31.1 | 5.46 | 19.2 | 19 | 43.6 | 16.2 | 38 | 13 | 25.7 | 18.5 | 34.2 | 13.6 | 32.2 | 3.86 | 17.5 |

Source: PubChem BioAssay (NCI)
